Measured values published in US10723751B2 (priority 2013, dated 2020).
Read-outs that look alike come from different tables or passages of the source.

Assays:
[1] = test system: Kennel cough, Giardia and Isospora infections; assay: Treatment of Kennel cough, Giardia and Isospora infections in a dog
[2] = Treatment of chronic suppurative prostatitis / prostate abscess in a dog; conditions: in vivo
Procedure: An eight year old Akita dog presented suffering from chronic, recurring prostatitis with typical clinical symptoms associated with the condition. […] This condition had worsened in the previous eight months, causing significant suffering by the pet and frustration to the dog's owner.
In the second week the dose was adjusted to 5 mg/kg inj. twice/day. […] The treatment continued in the 3rd week with 2 mg/bw kg dose twice/day.

Pseudomonas Aeruginosa = assay: Aerobic Culture and Mic from ear swab
herpes simplex labialis = assay: Treatment of herpes simplex labialis; type: in vivo, human
Excerpt: A volunteer, 54 kg suffered from recurring herpes outbreaks on the lip. The outbreaks happened about every two years and were associated with immune compromised conditions like stress, concurrent upper respiratory infection and menstrual cycles. The outbreaks last approximately 7-9 days and no spontaneous remission of an outbreak had occurred.
The outbreaks always followed a predictable progression and included a tingling sensation, redness and swelling of about 5 mm area on upper right side middle of the lip and 2-4 days after the onset blisters appear that turns into a scab that last about 5 days. The only medicine that could slightly alter this course was Zovirax crema/acyclovir/if the treatment began at the first sign of an outbreak. No other medicine had any effect on alleviating symptoms. With the treatment of Zovirax the blister size smaller (about 4 mm in diameter) and the duration of the outbreak was shorter (to approximately 5 days).
Topical and oral cyanogenic composition medications were applied simultaneously with no other medication.

Candida albicans = assay: Treatment of recurring Candida albicans vaginal yeast infection; type: in vivo, human
Excerpt: A volunteer 57 kg body weight with frequent recurring vaginal Candida albicans infection was diagnosed and treated by their gynecologist over a period of 15 years. The reccurrence frequency was 2-3 flare ups every year for the past 15 years. […] However, 3-6 months later the infection would again appear. Chlorhexidine wash was also tried to prevent recurrence to no effect.
No flare-up has been detected for at least three years. No other treatment was used since there had been no recurrence.

Rhodococcus equi = assay: Antibiotic sensitivity testing of the foal's bacterial culture; type: cell-based
[3] = known substances; cited from earlier work
[4] = cited from earlier work
bacterial pneumonia = assay: Treatment of bacterial pneumonia in a cat; type: in vivo; conditions: before the cyanogenic composition
respiratory infection = assay: Treatment of therapy resistant respiratory infection in a cat; type: in vivo; conditions: clavamox oral, five days later convenia injections
Procedure: A two year old domestic short hair cat, six pounds, body weight, temp 102° F. emaciated cat came from a cat holding facility and was FIV and FELV negative. Its clinical symptoms: very severe wheezing respiration, very moist cough, frequent sneezing all day beginning 10 days previously. The cat had been treated in another hospital previously with antibiotics: first, clavamox oral/contains amoxicillin and with β-lactamase-inhibiting effect clavulanic acid known as for powerful, broad-spectrum antimicrobial activity. […] CBC chemistry blood work was performed. The only abnormality was a 40% increase in Monocytes above the highest normal, and mild anemia.

Which results are given for `CCN1CCN(c2cc3c(cc2F)c(=O)c(C(=O)O)cn3C2CC2)CC1` [enrofloxacin]?
outcome of previous treatment ([1]; switched to Enrofloxacin, Clavomox continued): the symptoms continued to worsen; outcome of previous antibiotic treatment [2]: only temporary mild improvement, followed by a quick relapse; MIC (Pseudomonas Aeruginosa; Pseudomonas aeruginosa): ≤ 0.5 µg/mL; sensitive / resistant (Pseudomonas Aeruginosa; ear swab isolate): S

With `COCC1=C(C(=O)O)N2C(=O)[C@@H](NC(=O)/C(=N\OC)c3csc(N)n3)[C@H]2SC1` [cefpodoxime] as the compound, how does the MIC (Pseudomonas Aeruginosa; Pseudomonas aeruginosa) read?
Its MIC is ≥ 8 µg/mL.

What about the sensitive / resistant (Pseudomonas Aeruginosa; ear swab isolate) of the same compound?
Its sensitive / resistant is “R”.

For `Nc1nc2c(ncn2COCCO)c(=O)[nH]1` [Zovirax, acyclovir], which “blister size in diameter” value (herpes simplex labialis; treatment begun at first sign of an outbreak) is on record?
Its value is “about 4 mm”.

And the “duration of the outbreak” value (herpes simplex labialis; untreated approximately 7-9 days)?
The value was “about 5 days”.

With `Cc1nnc(SCC2=C(C(=O)O)N3C(=O)[C@@H](NC(=O)Cn4cnnn4)[C@H]3SC2)s1` [cefazolin] as the compound, how does the sensitive / resistant (Pseudomonas Aeruginosa; ear swab isolate) read?
Its sensitive / resistant is “R”.

For `[H]/N=C(\N/C(=N/[H])NCCCCCCNC(=N)NC(=N)Nc1ccc(Cl)cc1)Nc1ccc(Cl)cc1` [Chlorhexidine wash, Chlorhexidine], which prevention of recurrence (Candida albicans; in vivo) is on record?
Its prevention of recurrence is “no effect”.

Which sensitive / resistant (Pseudomonas Aeruginosa; ear swab isolate) does the source give for `CC1=C(C(=O)O)N2C(=O)[C@@H](NC(=O)[C@H](N)c3ccc(O)cc3)[C@H]2SC1` [cephadroxil] here?
Its sensitive / resistant is “R”.

For gentamicin, which sensitive / resistant (Pseudomonas Aeruginosa; ear swab isolate) is on record?
Its sensitive / resistant is “S”.

And the MIC (Pseudomonas Aeruginosa; ear swab isolate, heavy growth)?
Its MIC is “<= 2 ug/ml”.

For `Clc1ccccc1C(c1ccccc1)(c1ccccc1)n1ccnc1` [lotrimazole], which “outcome of previous treatment” value (Candida albicans; oral capsule and cream 5-7 days, infection again after 3-6 months) is on record?
Its value is “good symptomatic response”.

With `CO[C@H]1/C=C/O[C@@]2(C)Oc3c(C)c(O)c4c(O)c(c(/C=N/N5CCN(C)CC5)c(O)c4c3C2=O)NC(=O)/C(C)=C\C=C\[C@H](C)[C@H](O)[C@@H](C)[C@@H](O)[C@@H](C)[C@H](OC(C)=O)[C@@H]1C` [rifampin] as the compound, how does the antibiotic sensitivity (Rhodococcus equi) read?
Its antibiotic sensitivity is “resistance”.

For `CC1=C(C(=O)O)N2C(=O)[C@@H](NC(=O)[C@H](N)c3ccccc3)[C@H]2SC1` [cephalexin], which sensitive / resistant (Pseudomonas Aeruginosa; ear swab isolate) is on record?
Its sensitive / resistant is “R”.

Which sensitive / resistant (Pseudomonas Aeruginosa; ear swab isolate) does the source give for `CC1(C)S[C@@H]2[C@H](NC(=O)[C@H](N)c3ccccc3)C(=O)N2[C@H]1C(=O)O` [ampicillin] here?
Its sensitive / resistant is “R”.

For `CO/N=C(/C(=O)N[C@@H]1C(=O)N2C(C(=O)O)=C([C@@H]3CCCO3)CS[C@H]12)c1csc(N)n1` [cefovecin], which sensitive / resistant (Pseudomonas Aeruginosa; ear swab isolate) is on record?
Its sensitive / resistant is “R”.

Which antibiotic sensitivity (Rhodococcus equi) does the source give for `CC[C@H]1OC(=O)[C@H](C)[C@@H](O[C@H]2C[C@@](C)(OC)[C@@H](O)[C@H](C)O2)[C@H](C)[C@@H](O[C@@H]2O[C@H](C)C[C@H](N(C)C)[C@H]2O)[C@](C)(O)C[C@@H](C)C(=O)[C@H](C)[C@@H](O)[C@]1(C)O` [erythromycin] here?
The antibiotic sensitivity was “resistance”.

With `[Cl-].[Na+]` [Table salt] as the compound, how does the LD50 [3] read?
Its LD50 is 300 mg/kg.

With `CC[C@H]1OC(=O)[C@H](C)[C@@H](O[C@H]2C[C@@](C)(OC)[C@@H](O)[C@H](C)O2)[C@H](C)[C@@H](O[C@@H]2O[C@H](C)C[C@H](N(C)C)[C@H]2O)[C@](C)(O)C[C@@H](C)CN(C)[C@H](C)[C@@H](O)[C@]1(C)O` [Azithromycin] as the compound, how does the “outcome of previous treatment” value ([1]; Azithromycin and Clavamox at therapeutic dose, about 2 weeks) read?
Its value is “the symptoms did not abate”.

With `CC(=O)Oc1ccccc1C(=O)O` [aspirin] as the compound, how does the LD50 [3] read?
The LD50 was 200 to 1200 mg/kg.

Which results are given for `CO[C@@]1(NC(=O)Cc2cccs2)C(=O)N2C(C(=O)O)=C(COC(N)=O)CS[C@@H]21` [cefoxitin]?
MIC (Pseudomonas Aeruginosa; Pseudomonas aeruginosa): ≥ 32 µg/mL; sensitive / resistant (Pseudomonas Aeruginosa; ear swab isolate): R

With `N#C[C@H](O[C@@H]1O[C@H](CO[C@@H]2O[C@H](CO)[C@@H](O)[C@H](O)[C@H]2O)[C@@H](O)[C@H](O)[C@H]1O)c1ccccc1` [amygdalin] as the compound, how does the LD50 ([4]; literature) read?
Its LD50 is “about 900 mg/body weight kg”.

And the “LD 50 of oral amygdalin” value ([4]; oral, scientific literature)?
The value was 400 to 900 mg/kg.

With `CC1(C)S[C@@H]2[C@H](NC(=O)[C@H](N)c3ccc(O)cc3)C(=O)N2[C@H]1C(=O)O` [amoxicillin] as the compound, how does the “outcome of previous treatment” value (bacterial pneumonia) read?
The value was “slight improvement followed by a relapse”.

What about the sensitive / resistant (Pseudomonas Aeruginosa; ear swab isolate) of the same compound?
The sensitive / resistant was “R”.

For `CO/N=C(\C(=O)N[C@@H]1C(=O)N2C(C(=O)O)=C(CSC(=O)c3ccco3)CS[C@H]12)c1csc(N)n1` [ceftiofur], which MIC (Pseudomonas Aeruginosa; Pseudomonas aeruginosa) is on record?
Its MIC is ≥ 8 µg/mL.

And the sensitive / resistant (Pseudomonas Aeruginosa; ear swab isolate)?
Its sensitive / resistant is “R”.

For `CN1CCN(c2c(F)cc3c(=O)c(C(=O)O)cn4c3c2OCN4C)CC1` [marbofloxacin], which MIC (Pseudomonas Aeruginosa; Pseudomonas aeruginosa) is on record?
Its MIC is ≤ 1 µg/mL.

What about the sensitive / resistant (Pseudomonas Aeruginosa; ear swab isolate) of the same compound?
Its sensitive / resistant is “S”.

Which MIC (Pseudomonas Aeruginosa; Pseudomonas aeruginosa) does the source give for `NCC[C@H](O)C(=O)N[C@@H]1C[C@H](N)[C@@H](O[C@H]2O[C@H](CN)[C@@H](O)[C@H](O)[C@H]2O)[C@H](O)[C@H]1O[C@H]1O[C@H](CO)[C@@H](O)[C@H](N)[C@H]1O` [amikacin] here?
Its MIC is ≤ 8 µg/mL.

And the sensitive / resistant (Pseudomonas Aeruginosa; ear swab isolate)?
The sensitive / resistant was “S”.

Which “outcome of previous antibiotic treatment” value (respiratory infection) does the source give for `CO/N=C(/C(=O)N[C@@H]1C(=O)N2C(C(=O)[O-])=C([C@@H]3CCCO3)CS[C@H]12)c1csc(N)n1.[Na+]` [convenia] here?
The value was “the condition continued to worsen”.
